US11766411B2, “Use of cannabinoids in the treatment of epilepsy” (GW Research Limited, priority 2014, dated 2023)

Experiments:
Assay type in all cases: in vivo, human
[1] = test system: children and young adults with severe, childhood onset treatment-resistant epilepsy (TRE); assay: Expanded access compassionate use program of highly purified CBD extract added to baseline AED regimen; seizure diaries
Method: (§1) Twenty-seven children and young adults with severe, childhood onset treatment-resistant epilepsy (TRE) were tested with a highly purified extract of cannabidiol (CBD) obtained from a cannabis plant. The participants in the study were part of an expanded access compassionate use program for CBD.
(§2) All patients entered a baseline period of 4 weeks when parents/caregivers kept prospective seizure diaries, noting all countable motor seizure types.
(§3) The patients then received a highly purified CBD extract (greater than 98% CBD w/w) in sesame oil, of known and constant composition, at a dose of 5 mg/kg/day in addition to their baseline anti-epileptic drug (AED) regimen.
(§4) Laboratory testing for hematologic, liver, kidney function, and concomitant AED levels was performed at baseline, and after 4, 8 and 12 weeks of CBD therapy.

[2] = test system: children and young adults with treatment-resistant Dravet syndrome; assay: Expanded access compassionate use program, Dravet syndrome sub-group
Method: as §1, §2, §3, §4
Nine children and young adults with treatment-resistant Dravet syndrome were part of an expanded access compassionate use program for highly purified CBD extract as described in Example 1.

[3] = test system: children and young adults with treatment-resistant myoclonic absence seizures; assay: Expanded access compassionate use program, myoclonic absence seizures sub-group
Method: as §1, §2, §3, §4
Four children and young adults with treatment-resistant myoclonic absence seizures were part of an expanded access compassionate use program for highly purified CBD extract as described in Example 1.

patients with FIRES = assay: Expanded access program, febrile infection related epilepsy syndrome (FIRES) patients; parameters: Change from Baseline: unit not given here; conditions: for % Change from Baseline / Change from Baseline / Frequency (per month) / Responder (>=50% Reduction) / Responder (>=70% Reduction) / Responder (>=90% Reduction) / Seizure Free: total seizures
Method: Three patients with FIRES, with an age range of from 4 to 15 years, were treated with CBD under an expanded access program as described previously in Example 1.
Safety laboratory studies, physical/neurological exams, 24 hour video/EEG and seizure types and frequencies were assessed at baseline and one month after starting CBD.
A highly purified extract of CBD as an oral solution in sesame oil was used at a concentration of 25 mg/mL.
Treatment was initiated at a dose of 10 mg/kg/day given in two divided doses, increasing by 5 mg/kg/day every 3 days.
Following seizure improvement an average of 2 AEDs were weaned.

[4] = 27 subjects, 3-month treatment period
[5] = All patients (excluding Dravet, MAS and FIRES) (n = 13), after 12 weeks of treatment
[6] = All patients excluding Dravet patients (n = 18), after 3 months
[7] = All patients excluding MAS patients (n = 23), after 3 months
[8] = co-treatment of CBD with clobazam
[9] = 9 Dravet subjects, 3-month treatment period
[10] = Dravet patients (n = 9), after 3 months of therapy
[11] = 4 MAS subjects, 3-month treatment period
[12] = MAS patients (n = 4), after 3 months of therapy
[13] = FIRES patients (n = 3), after 12 weeks of treatment

C=C(C)[C@@H]1CCC(C)=C[C@H]1c1c(O)cc(CCCCC)cc1O [CBD, Cannabidiol]
Common adverse events [1, 4]: somnolence, fatigue, decreased appetite, increased appetite and diarrhoea | adverse events [1, 4]: mild and well tolerated | subjects who withdrew during the treatment period [1, 4]: None | Responder rate (>50% reduction) [%] [1, 5]: 38% | Responder rate (>50% reduction), number of patients [1, 5]: 5 | Responder rate (>70% reduction) [%] [1, 5]: 31% | Responder rate (>70% reduction), number of patients [1, 5]: 4 | Responder rate (>90% reduction) [%] [1, 5]: 8% | Responder rate (>90% reduction), number of patients [1, 5]: 1 | Seizure free, number of patients [1, 5]: 0 | Responder rate (>50% reduction) [%] ([1]; All patients (n = 27), Month 3): 48% | Responder rate (>50% reduction), number of patients ([1]; All patients (n = 27), Month 3): 13 | Responder rate (>70% reduction) [%] ([1]; All patients (n = 27), Month 3): 41% | Responder rate (>70% reduction), number of patients ([1]; All patients (n = 27), Month 3): 11 | Responder rate (>90% reduction) [%] ([1]; All patients (n = 27), Month 3): 22% | Responder rate (>90% reduction), number of patients ([1]; All patients (n = 27), Month 3): 6 | Seizure free [%] ([1]; All patients (n = 27), Month 3): 7% | Responder rate (>50% reduction) [%] [1, 6]: 44% | Responder rate (>50% reduction), number of patients [1, 6]: 8 | Responder rate (>70% reduction) [%] [1, 6]: 39% | Responder rate (>70% reduction), number of patients [1, 6]: 7 | Responder rate (>90% reduction) [%] [1, 6]: 17% | Responder rate (>90% reduction), number of patients [1, 6]: 3 | Seizure free, number of patients [1, 6]: 0 | Responder rate (>50% reduction) [%] [1, 7]: 48% | Responder rate (>50% reduction), number of patients [1, 7]: 11 | Responder rate (>70% reduction) [%] [1, 7]: 39% | Responder rate (>70% reduction), number of patients [1, 7]: 9 | Responder rate (>90% reduction) [%] [1, 7]: 22% | Responder rate (>90% reduction), number of patients [1, 7]: 5 | Seizure free [%] [1, 7]: 9% | Seizure free, number of patients [1, 7]: 2 | odds ratio (OR) for positive treatment response (greater than 50% responder rate), convulsive seizures [1, 8]: 1.9 | odds ratio (OR) for positive treatment response (greater than 50% responder rate), total seizure reduction [1, 8]: 3.3 | tolerability ([1]; doses up to 25 mg/kg/day): generally well-tolerated | Common adverse events [2, 9]: somnolence, fatigue, decreased appetite, increased appetite and diarrhoea | adverse events [2, 9]: mild and well tolerated | subjects who withdrew during the treatment period [2, 9]: None | Responder rate (>50% reduction) [%] [2, 10]: 56% | Responder rate (>50% reduction), number of patients [2, 10]: 5 | Responder rate (>70% reduction) [%] [2, 10]: 44% | Responder rate (>70% reduction), number of patients [2, 10]: 4 | Responder rate (>90% reduction), number of patients [2, 10]: 3 | Seizure free [%] [2, 10]: 22% | Seizure free, number of patients [2, 10]: 2 | Common adverse events [3, 11]: somnolence, fatigue, decreased appetite, increased appetite and diarrhoea | adverse events [3, 11]: mild and well tolerated | subjects who withdrew during the treatment period [3, 11]: None | Responder rate (>50% reduction), number of patients [3, 12]: 2 | Responder rate (>70% reduction) [%] [3, 12]: 50% | Responder rate (>70% reduction), number of patients [3, 12]: 2 | Responder rate (>90% reduction) [%] [3, 12]: 25% | Seizure free, number of patients [3, 12]: 0 | functional recovery after a reduction in seizures (patients with FIRES; FIRES patients): able to walk and verbalise once more | Responder rate (>50% reduction) [%] (patients with FIRES; [13]): 67% | Responder rate (>50% reduction), number of patients (patients with FIRES; [13]): 2 | Responder rate (>70% reduction) [%] (patients with FIRES; [13]): 67% | Responder rate (>70% reduction), number of patients (patients with FIRES; [13]): 2 | Responder rate (>90% reduction) [%] (patients with FIRES; [13]): 67% | Responder rate (>90% reduction), number of patients (patients with FIRES; [13]): 2 | Seizure free [%] (patients with FIRES; [13]): 33% | Seizure free, number of patients (patients with FIRES; [13]): 1 | seizure freedom over the treatment period (patients with FIRES; Patient 1, 24 week period): seizure free after starting treatment for almost all of the treatment period | reduction in seizures (patients with FIRES; Patient 2, after 4 weeks): 50% | reduction in the number of seizures (patients with FIRES; Patient 3, week 24): greater than 90% | improvement in clinical and electrographic seizure burden (patients with FIRES; in two of the three children with refractory seizures or status epilepticus due to FIRES): greater than 90% | Follow up laboratory tests (safety studies, concomitant AED levels) (patients with FIRES; three FIRES patients): no changes in safety studies or concomitant AED levels | tolerability (patients with FIRES; three FIRES patients): very well tolerated | treatment related adverse effects (patients with FIRES; three FIRES patients): No treatment related adverse effects | % Change from Baseline (patients with FIRES; Patient 1, Wk 4): −100.0% | Change from Baseline (patients with FIRES; Patient 1, Wk 4): −4.0 | Frequency (per month) (patients with FIRES; Patient 1, Wk 4): 0.0 per month | Responder (>=50% Reduction) (patients with FIRES; Patient 1, Wk 4): Yes | Responder (>=70% Reduction) (patients with FIRES; Patient 1, Wk 4): Yes | Responder (>=90% Reduction) (patients with FIRES; Patient 1, Wk 4): Yes | Seizure Free (patients with FIRES; Patient 1, Wk 4): Yes | % Change from Baseline (patients with FIRES; Patient 1, Wk 8): −75.0% | Change from Baseline (patients with FIRES; Patient 1, Wk 8): −3.0 | Frequency (per month) (patients with FIRES; Patient 1, Wk 8): 1.0 per month | Responder (>=50% Reduction) (patients with FIRES; Patient 1, Wk 8): Yes | Responder (>=70% Reduction) (patients with FIRES; Patient 1, Wk 8): Yes | Responder (>=90% Reduction) (patients with FIRES; Patient 1, Wk 8): No | Seizure Free (patients with FIRES; Patient 1, Wk 8): No | % Change from Baseline (patients with FIRES; Patient 1, Wk 12): −100.0% | Change from Baseline (patients with FIRES; Patient 1, Wk 12): −4.0
